Data published in ChEMBL document CHEMBL1201862, “PubChem BioAssay data set” (2004).
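Five compound concentrations were applied to cells in 96-well plates for 48 hours; endpoints were derived by simple linear interpolation of the resulting dose-response curve. Abbreviation: GI50, concentration required for 50% inhibition of growth.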 Activity calls are given as the source filed them. Cut-off read from the data, not from the text of the source: active = GI50 up to about 1.1 µM and inactive = higher.

Tests used:
Experiment in all cases: NCI tumour cell line growth inhibition, 48 h
MDA-N = test system: MDA-N
MOLT-4 = test system: MOLT-4
HCT-15 = test system: HCT-15
HCC 2998 = test system: HCC 2998
SNB-19 = test system: SNB-19
TK-10 = test system: TK-10
IGROV-1 = test system: IGROV-1
SF-268 = test system: SF-268
MDA-MB-231 = test system: MDA-MB-231
OVCAR-8 = test system: OVCAR-8
HOP-62 = test system: HOP-62
A498 = test system: A498
SNB-75 = test system: SNB-75
HL-60 = test system: HL-60
Malme-3M = test system: Malme-3M
UACC-62 = test system: UACC-62
MDA-MB-435 = test system: MDA-MB-435
SK-OV-3 = test system: SK-OV-3
CAKI-1 = test system: CAKI-1

SMILES	GI50 (MDA-N)	GI50 (MOLT-4)	GI50 (HCT-15)	GI50 (HCC 2998)	GI50 (SNB-19)	GI50 (TK-10)	GI50 (IGROV-1)	GI50 (SF-268)	GI50 (MDA-MB-231)	GI50 (OVCAR-8)	GI50 (HOP-62)	GI50 (A498)	GI50 (SNB-75)	GI50 (HL-60)	GI50 (Malme-3M)	GI50 (UACC-62)	GI50 (MDA-MB-435)	GI50 (SK-OV-3)	GI50 (CAKI-1)
NCCc1c[nH]c2ccc(OC(=O)C(=O)O)cc12	> 100 µM (inactive)	> 100 µM (inactive)	> 100 µM	> 100 µM (inactive)	> 100 µM (inactive)	> 100 µM (inactive)	> 100 µM (inactive)	> 100 µM (inactive)	> 100 µM (inactive)	> 100 µM (inactive)	> 100 µM (inactive)	> 100 µM (inactive)	> 100 µM (inactive)	0.302 µM (active)	> 100 µM (inactive)	> 100 µM (inactive)	> 100 µM (inactive)	> 100 µM (inactive)	> 100 µM (inactive)
CC1C(c2ccc3c(c2)OCO3)c2cc3c(cc2OC1N1CCOCC1)OCO3 (stereo not given)	6.28 µM (inactive)	16.7 µM (inactive)	19.3 µM	18.2 µM (inactive)	16.4 µM (inactive)	29.1 µM (inactive)	28 µM (inactive)	31.3 µM (inactive)	18.4 µM (inactive)	32.5 µM (inactive)	34.4 µM (inactive)	22.4 µM (inactive)	32.8 µM (inactive)	13.8 µM (inactive)	28.8 µM (inactive)	20.3 µM (inactive)	5.6 µM (inactive)	49.9 µM (inactive)	15.2 µM (inactive)
Cc1ccc(-c2cc(-c3ccco3)c(C#N)c(=S)[nH]2)cc1	> 10 µM (inactive)	32.2 µM (inactive)	42 µM	67.5 µM (inactive)	32.1 µM (inactive)	> 100 µM (inactive)	25.7 µM (inactive)	40.6 µM (inactive)	43.2 µM (inactive)	68.1 µM (inactive)	> 100 µM (inactive)	36.3 µM (inactive)	49.8 µM (inactive)	57 µM (inactive)	24.2 µM (inactive)	26.8 µM (inactive)	23.9 µM (inactive)	39.9 µM (inactive)	> 100 µM (inactive)
COc1cc(C2c3cc4c(cc3OC(N3CCCC3)C2C)OCO4)cc(OC)c1OC (stereo not given)	0.167 µM (active)	1.08 µM (active)	0.526 µM	1.34 µM (inactive)	1.21 µM (inactive)	0.938 µM (active)	0.813 µM (active)	2.34 µM (inactive)	0.697 µM (active)	0.832 µM (active)	0.596 µM (active)	0.326 µM (active)	0.443 µM (active)	0.355 µM (active)	0.578 µM (active)	0.509 µM (active)	0.177 µM (active)	0.628 µM (active)	0.664 µM (active)
CC(C)/C=N\N1C(N)=C(C#N)C(C#N)(C#N)C1C(C)C (stereo not given)	22.4 µM (inactive)	34.8 µM (inactive)	32.7 µM	34.4 µM (inactive)	> 100 µM (inactive)	> 100 µM (inactive)	39.9 µM (inactive)	56.6 µM (inactive)	29.9 µM (inactive)	25.1 µM (inactive)	55.7 µM (inactive)	51.3 µM (inactive)	42.8 µM (inactive)	32.4 µM (inactive)	> 100 µM (inactive)	26.4 µM (inactive)	23.4 µM (inactive)	> 100 µM (inactive)	85.1 µM (inactive)
Cc1ccc(NC(=O)CSc2nc(O)nc3[nH]cnc23)cc1	90.2 µM (inactive)	58.7 µM (inactive)	> 100 µM	> 100 µM (inactive)	68.7 µM (inactive)	> 100 µM (inactive)	> 100 µM (inactive)	48.5 µM (inactive)	> 100 µM (inactive)	> 100 µM (inactive)	48.5 µM (inactive)	28.2 µM (inactive)	> 100 µM (inactive)	> 100 µM (inactive)	> 100 µM (inactive)	> 100 µM (inactive)	53.8 µM (inactive)	> 100 µM (inactive)	> 100 µM (inactive)
Cc1cc2[nH]c(=NS(=O)(=O)c3cc(C)c(Cl)cc3S)[nH]c2cc1C	> 100 µM (inactive)	21.5 µM (inactive)	73.3 µM	> 100 µM (inactive)	56.6 µM (inactive)	> 100 µM (inactive)	96.4 µM (inactive)	83.8 µM (inactive)	> 100 µM (inactive)	77.3 µM (inactive)	23.1 µM (inactive)	> 100 µM (inactive)	> 100 µM (inactive)	28.7 µM (inactive)	> 100 µM (inactive)	> 100 µM (inactive)	65.5 µM (inactive)	> 100 µM (inactive)	> 100 µM (inactive)
O=C1c2ccccc2CC12Cc1ccccc1C2	56.4 µM (inactive)	35.7 µM (inactive)	49.7 µM	18.5 µM (inactive)	> 100 µM (inactive)	21.9 µM (inactive)	87.5 µM (inactive)	48 µM (inactive)	66.7 µM (inactive)	80.4 µM (inactive)	83.9 µM (inactive)	> 100 µM (inactive)	18.2 µM (inactive)	16.6 µM (inactive)	70 µM (inactive)	> 100 µM (inactive)	55 µM (inactive)	> 100 µM (inactive)	48.3 µM (inactive)
C=C1C(=O)OC2/C=C(/C)C(OC(C)=O)CC(O)/C(C)=C\C(OC(=O)/C(C)=C\C)C12 (stereo not given)	48.1 µM (inactive)	29.6 µM (inactive)	36.6 µM	> 100 µM (inactive)	> 100 µM (inactive)	> 100 µM (inactive)	> 100 µM (inactive)	> 100 µM (inactive)	> 100 µM (inactive)	35.3 µM (inactive)	> 100 µM (inactive)	> 100 µM (inactive)	> 100 µM (inactive)	17 µM (inactive)	14.3 µM (inactive)	> 100 µM (inactive)	81.8 µM (inactive)	> 100 µM (inactive)	30.5 µM (inactive)
CNCCCNC1(c2cc3ccccc3s2)CCCCC1	2.2 µM (inactive)	1.94 µM (inactive)	8.43 µM	1.29 µM (inactive)	12.1 µM (inactive)	6.31 µM (inactive)	12.8 µM (inactive)	11.3 µM (inactive)	2.99 µM (inactive)	14.5 µM (inactive)	8.93 µM (inactive)	3.37 µM (inactive)	6.17 µM (inactive)	1.43 µM (inactive)	2.28 µM (inactive)	1.94 µM (inactive)	2.55 µM (inactive)	15.7 µM (inactive)	10.1 µM (inactive)
CCC(C)NC(=S)N/N=C(\C)c1ccccn1 (stereo not given)	0.57 µM (active)	< 0.01 µM (active)	< 0.01 µM	0.447 µM (active)	1.45 µM (inactive)	2.87 µM (inactive)	< 0.01 µM (active)	0.351 µM (active)	0.0543 µM (active)	0.126 µM (active)	0.0348 µM (active)	0.102 µM (active)	0.452 µM (active)	< 0.01 µM (active)	1.83 µM (inactive)	0.0733 µM (active)	0.824 µM (active)	0.188 µM (active)	< 0.01 µM (active)
CC(C)(C)CC(C)(C)NC(=S)NO	> 100 µM (inactive)	> 100 µM (inactive)	> 100 µM	> 100 µM (inactive)	> 100 µM (inactive)	> 100 µM (inactive)	> 100 µM (inactive)	> 100 µM (inactive)	> 100 µM (inactive)	> 100 µM (inactive)	> 100 µM (inactive)	> 100 µM (inactive)	> 100 µM (inactive)	> 100 µM (inactive)	> 100 µM (inactive)	> 100 µM (inactive)	> 100 µM (inactive)	> 100 µM (inactive)	> 100 µM (inactive)
NCCCCNCCCN1CCOC1=O	> 100 µM (inactive)	> 100 µM (inactive)	> 100 µM	> 100 µM (inactive)	> 100 µM (inactive)	70.8 µM (inactive)	> 100 µM (inactive)	> 100 µM (inactive)	> 100 µM (inactive)	> 100 µM (inactive)	> 100 µM (inactive)	> 100 µM (inactive)	> 100 µM (inactive)	> 100 µM (inactive)	> 100 µM (inactive)	> 100 µM (inactive)	> 100 µM (inactive)	> 100 µM (inactive)	> 100 µM (inactive)
CC(NNC(=O)c1cc[n+]([BH2-]C#N)cc1)c1cccc(C(F)(F)F)c1 (stereo not given)	81.3 µM (inactive)	46.7 µM (inactive)	68.5 µM	> 100 µM (inactive)	> 100 µM (inactive)	> 100 µM (inactive)	> 100 µM (inactive)	> 100 µM (inactive)	> 100 µM (inactive)	> 100 µM (inactive)	> 100 µM (inactive)	> 100 µM (inactive)	> 100 µM (inactive)	34.5 µM (inactive)	> 100 µM (inactive)	73.3 µM (inactive)	> 100 µM (inactive)	26.7 µM (inactive)	> 100 µM (inactive)
COc1cc2c(/C=C3/C(=O)N(c4ccccc4)c4ccccc43)c(Cl)[nH]c2cc1C	1.45 µM (inactive)	2.56 µM (inactive)	2.83 µM	2.37 µM (inactive)	4.55 µM (inactive)	3.19 µM (inactive)	2.7 µM (inactive)	3.47 µM (inactive)	3.21 µM (inactive)	2.12 µM (inactive)	3.07 µM (inactive)	6.46 µM (inactive)	3.71 µM (inactive)	2.31 µM (inactive)	4.29 µM (inactive)	2.93 µM (inactive)	0.998 µM (active)	1.89 µM (inactive)	3.89 µM (inactive)
